Several values for one entry are separate records, joined by “and”; a condition that tells them apart may be missing. Equal entries are not always repeated. No end group written: not given here.
How the values were obtained:
[1] = tested on: hematopoietic stem cells (HSC) and their hematopoietic progenitors (HPC); test: CFU-GM / CFU-GEMM colony assay of peripheral blood mononuclear cells after single subcutaneous injection; assay type: in vivo, C57Bl6 mice
Procedure: C57Bl6 male mice, from 8 weeks to 4 month of age, from Harlan were used. Mice received subcutaneous injections of saline, Compound X (50 μg/kg) or Compound X (250 μg/kg). After 1 and 4 hours, mice were anesthetized and blood was collected through the orbital sinus with heparinized capillary tubes. 20 μl of blood was removed from each tube for WBC counts;
Remaining blood from each group was pooled and mononuclear cells were isolated by density gradient separation. To enumerate HSC and HPC in peripheral blood cells were washed, counted plated in semi-solid Methylcellulose MC3434 (Stem cell technology) at 100,000 per dish (5 dishes/group) and placed in CO2 incubator at 37° C. Colony-forming unit-granulocyte erythroid macrophage megakaryocyte (CFU-GEMM) and Colony-forming unit-granulocyte macrophage (CFU-GM) were detected under inverted microscope 7 and 10 days after.
In this experiment, C57Bl6 mice received subcutaneous injections of PBS, Compound X (250 μg/kg) or AMD3100 (5 mg/kg). After 1 hr blood was collected through the orbital sinus with heparinized capillary tubes. Blood from each group was pooled, counted and mononuclear cells were isolated by density gradient separation. Cells were washed, counted and plated at 100,000 per dish (5 dishes/group) for CFU-GEMM and CFU-GM colonies. CFU-GEMM colonies were scored on day 14, while CFU-GM colonies on day 7 after plating in MC3434 (Stem cell Technology).

[2] = tested on: white blood cells in peripheral blood; test: White blood cell count after 4 daily injections of G-CSF and Compound X; assay type: in vivo, mice; details: 5 μg/mouse each agent s.c. daily for 4 days, pooled blood
Procedure: Compound X and Neupogen (rG-CSF Amgen, lot# P043601) were diluted in PBS. Mice received subcutaneous injections of PBS, Compound X (5 μg/mouse), G-CSF (5 μg/mouse) or Compound X (5 μg/mouse)+G-CSF (5 μg/mouse) for four consecutive days. On the last day of injections, 1 hour post injections, blood was collected through the orbital sinus with heparinized capillary tubes. Blood was pooled from 3 mice/group and white blood cell counts were obtained. Mononuclear cells were isolated by density gradient separation from pooled blood. Cells were washed, counted and plated at 100,000 per dish (5 dishes/group) for CFU-mix and CFU-GM colonies. Blood was also collected and processed on day 8 for colony assay. Results are shown in Tables 10, 11, and 12 and in FIG. 5.

[3] = tested on: full-thickness cutaneous wounds; test: Excisional wound healing model in db/db mice; assay type: in vivo; set-up: Wound area measurements, Day 14: unit not given here; details: for Wound healing rate: individual mice; for Wound healing rate / Wound area measurements, Day 14 / Wound area, Percent of original size: 5 mg/kg; for Wound area measurements, Day 14 / Wound area, Percent of original size: individual wounds
Procedure: The average time to wound closure between db/db mice and non-diabetic C57BL6 mice was compared in a pilot experiment. Paired 6-mm full-thickness cutaneous wounds were made on the dorsa of mice after depilation with a sterile Miltex biopsy punch (VWR #21909-144). To prevent wound contraction during the healing process, 0.5 g/mL polyisobutyl methacrylate (Sigma #445754) in toluene (Sigma #244511) was applied over wounds 24 hours after wounding. After methacrylate hardened, a transparent dressing (Tagaderm, Lab Safety Supply #53379) was placed over wounds. Two groups of mice (5 mice per group) received intravenous injections of either Vehicle or Compound X (5 mg/kg) starting on day one post wounding and continuing daily for four consecutive days at Zeitgeber time 4 (ZT4), 4 hr after onset of light to time mobilization of stem cells with circadian oscillations (Frenette et. al. 2008).
Digital photographs of the wounds were taken on days 0, 7, 10 and 14. Wound areas were measured by manually tracing the border of unhealed area and quantified as a percent area of the original wound size. The size of the traced area was calculated automatically using the Image J (NIH) analysis program. The following calculation was used to determine the wound healing rate: (Area of original wound−Area of remaining wound)÷Area of original wound×100. […]
In the next experiment, 2 groups of db/db mice (6 mice per group) received paired 6-mm full-thickness cutaneous wounds. Mice then received intravenous injections of either Vehicle or Compound X (5 mg/kg) starting on day one post wounding and continuing daily for four consecutive days at ZT4. Wounds were monitored until complete closure in control group on day 21. To limit wound contraction during the healing process, a donut shaped silicone splint was centered on the wound and glued (cyanoacrylate adhesive) to the skin.
Ten mice were treated per group with 3 mice from each group being sacrificed for histology at day 10 post-wounding. Wound closure in the Compound X treated group was mostly achieved by the 14th day, while control wounds were closed between days 18-21 post-wounding. […] This was similar to data generated in previous experiments.

[4] = tested on: CFU-GEMM progenitor cells; test: Mobilization of CFU-GEMM in diabetic db/db mice; assay type: in vivo
[5] = s.c. 250 μg/kg, 1 hour, individual dishes
[6] = i.v. 5 mg/kg daily for 4 days, Day 7
[7] = i.v. 5 mg/kg daily for 4 days, Day 10
[8] = second experiment, i.v. 5 mg/kg daily for 4 days, 14 days post-wounding

FPHFDLSHGSAQV [Compound X, tridecapeptide that acts on stem cells]
increase in number of HSC HPC in blood ([1]; 1 hr after s.c. injection): up to 5 times | doses with mobilizing activity ([1]; doses tested from 5 μg/kg up to 5 mg): 0.125 to 0.5 mg/kg | CFU-GEMM, MEAN ([1]; s.c. 250 μg/kg, 1 hour): 3.8 per 100,000 cells | CFU-GM (day 7), MEAN ([1]; s.c. 250 μg/kg, 1 hour): 4 per 100,000 cells | CFU-GEMM [1, 5]: 6 per 100,000 cells and 3 per 100,000 cells (3×) and 4 per 100,000 cells | CFU-GM (day 7) [1, 5]: 3 per 100,000 cells (2×) and 6 per 100,000 cells and 4 per 100,000 cells (2×) | number of white blood cells and CFU-GM in peripheral blood ([1]; s.c. 250 μg/kg, 1 hr): did not change | increase of CFU-GEMM number in peripheral blood ([1]; s.c. 250 μg/kg, 1 hr, vs PBS): 3.8 times | CFU-GM + CFU-GEMM, MEAN ([1]; single s.c. 50 μg/kg, 1 hour): 5 per 100000 cells | CFU-GM + CFU-GEMM ([1]; single s.c. 50 μg/kg, 1 hour, individual dishes): 5 per 100000 cells and 6 per 100000 cells and 4 per 100000 cells and 3 per 100000 cells and 7 per 100000 cells | CFU-GM + CFU-GEMM, MEAN ([1]; single s.c. 50 μg/kg, 4 hour): 0.6 per 100000 cells | CFU-GM + CFU-GEMM ([1]; single s.c. 50 μg/kg, 4 hour, individual dishes): 1 per 100000 cells (3×) and 0 per 100000 cells (2×) | CFU-GM + CFU-GEMM, MEAN ([1]; single s.c. 250 μg/kg, 1 hour): 25 per 100000 cells | CFU-GM + CFU-GEMM ([1]; single s.c. 250 μg/kg, 1 hour, individual dishes): 24 per 100000 cells (2×) and 20 per 100000 cells and 28 per 100000 cells and 29 per 100000 cells | CFU-GM + CFU-GEMM, MEAN ([1]; single s.c. 250 μg/kg, 4 hour): 1.4 per 100000 cells | CFU-GM + CFU-GEMM ([1]; single s.c. 250 μg/kg, 4 hour, individual dishes): 1 per 100000 cells (4×) and 3 per 100000 cells | stem cell number (HSC) in circulation ([1]; within 1 hr after injection, from approximately 100 HSC under homeostatic conditions): 300-400 HSC | White Blood Cell counts: Cell Count ([2]; Day 4, 1 hour post injection): 7.3 ×10^6 | White Blood Cell counts: Cell Count ([2]; Day 8): 6.1 ×10^6 | Wound healing rate, Average [3, 6]: 14.22% | Wound healing rate [3, 6]: 5.14% and 6.40% and 7.85% and 8.83% and 42.89% | Wound healing rate, Average [3, 7]: 38.68% | Wound healing rate [3, 7]: 17.47% and 13.96% and 65.36% and 17.51% and 79.10% | wound closure ([3]; i.v. 5 mg/kg daily for 4 days, ten days after wounding): 39% | Wound area measurements, Day 14 ([3]; second experiment (6 mice per group, silicone splint), i.v. 5 mg/kg daily for 4 days): 5865 and 19152 and 50090 and 21199 and 49486 and 3603 and 24952 and 59032 and 74676 and 52782 and 11094 and 58870 | Wound area, Percent of original size, Average [3, 8]: 8.05% | Wound area, Percent of original size [3, 8]: 1.11% and 5.19% and 10.08% and 7.02% and 10.48% and 0.82% and 4.45% and 12.48% and 14.28% and 13.38% and 2.48% and 14.93% | Wound area measurements, Day 14 ([3]; third experiment (ten mice per group), i.v. 5 mg/kg): 4104 and 24930 and 972 and 100098 and 7440 and 2808 and 324 and 78 and 180 and 21924 and 53715 and 22554 and 20406 and 168663 | wounds closed by day 14 (95%-100% closure) ([3]; third experiment, i.v. 5 mg/kg): 11 of 14 | Wound area, Percent of original size ([3]; third experiment, i.v. 5 mg/kg, 14 days post-wounding): 0.83% and 5.59% and 0.19% and 18.81% and 1.56% and 0.61% and 0.06% and 0.02% and 0.03% and 4.11% and 10.3% and 5.11% and 5.24% and 29.82% | time to wound closure ([3]; third experiment, i.v. 5 mg/kg, control closed between days 18-21): ≤ 14 days | increase of CFU-GEMM number in peripheral blood vs Vehicle or 250 ug/kg ([4]; intravenous 5 mg/kg, one-hour post injection): > 3 times | mobilization of progenitor cells into the peripheral blood ([4]; subcutaneous, doses as high as 5 mg/kg): failed to mobilize

From patent US20140088006A1, “Stem Cell Mobilization and Tissue Repair and Regeneration” (Wellstat Therapeutics Corporation, priority 2011, published 2014)
